Experimental findings from ChEMBL document CHEMBL4673225, “Highly Selective PTK2 Proteolysis Targeting Chimeras to Probe Focal Adhesion Kinase Scaffolding Functions” (J Med Chem, 2019) are described below.

Series [1] has as its target T1, Protein cereblon/Focal adhesion kinase 1 (Homo sapiens, UniProt Q05397+Q96SW2). The series is described as follows: Protac activity at CRBN/PTK2 in human Hep3B2.1-7 cells assessed as induction of PTK2 degradation incubated for 18 hrs by protein capillary electrophoresis method. The note with it: hep3b. The class given is cell-based.
Target sequence in this assay (Q05397 whole entry): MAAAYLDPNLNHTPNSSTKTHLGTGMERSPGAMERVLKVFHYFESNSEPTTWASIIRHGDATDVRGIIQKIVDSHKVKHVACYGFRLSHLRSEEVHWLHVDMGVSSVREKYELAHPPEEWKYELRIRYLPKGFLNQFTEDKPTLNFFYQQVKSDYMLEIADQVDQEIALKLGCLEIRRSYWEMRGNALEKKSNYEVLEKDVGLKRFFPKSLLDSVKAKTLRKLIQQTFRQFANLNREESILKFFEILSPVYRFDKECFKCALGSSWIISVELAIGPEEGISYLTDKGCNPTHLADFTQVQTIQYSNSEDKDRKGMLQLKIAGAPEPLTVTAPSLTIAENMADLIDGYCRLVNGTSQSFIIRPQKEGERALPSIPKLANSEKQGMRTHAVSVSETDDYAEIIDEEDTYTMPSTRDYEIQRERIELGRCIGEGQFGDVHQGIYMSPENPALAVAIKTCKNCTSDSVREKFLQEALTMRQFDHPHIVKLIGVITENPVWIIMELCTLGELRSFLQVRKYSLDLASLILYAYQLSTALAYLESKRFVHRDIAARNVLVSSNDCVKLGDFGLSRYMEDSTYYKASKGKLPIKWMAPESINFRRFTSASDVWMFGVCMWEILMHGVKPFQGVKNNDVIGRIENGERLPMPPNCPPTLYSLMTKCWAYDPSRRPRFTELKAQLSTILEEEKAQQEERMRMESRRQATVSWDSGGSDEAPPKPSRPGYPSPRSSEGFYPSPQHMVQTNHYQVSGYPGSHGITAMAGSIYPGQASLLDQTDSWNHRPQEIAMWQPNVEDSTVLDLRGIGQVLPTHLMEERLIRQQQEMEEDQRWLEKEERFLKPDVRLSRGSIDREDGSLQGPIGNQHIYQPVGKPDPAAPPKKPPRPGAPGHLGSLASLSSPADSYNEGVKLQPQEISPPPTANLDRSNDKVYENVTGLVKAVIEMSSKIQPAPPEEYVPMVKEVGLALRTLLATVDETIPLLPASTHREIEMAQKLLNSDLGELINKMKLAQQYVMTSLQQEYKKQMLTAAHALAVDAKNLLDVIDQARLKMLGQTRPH
Target sequence in this assay (Q96SW2 whole entry): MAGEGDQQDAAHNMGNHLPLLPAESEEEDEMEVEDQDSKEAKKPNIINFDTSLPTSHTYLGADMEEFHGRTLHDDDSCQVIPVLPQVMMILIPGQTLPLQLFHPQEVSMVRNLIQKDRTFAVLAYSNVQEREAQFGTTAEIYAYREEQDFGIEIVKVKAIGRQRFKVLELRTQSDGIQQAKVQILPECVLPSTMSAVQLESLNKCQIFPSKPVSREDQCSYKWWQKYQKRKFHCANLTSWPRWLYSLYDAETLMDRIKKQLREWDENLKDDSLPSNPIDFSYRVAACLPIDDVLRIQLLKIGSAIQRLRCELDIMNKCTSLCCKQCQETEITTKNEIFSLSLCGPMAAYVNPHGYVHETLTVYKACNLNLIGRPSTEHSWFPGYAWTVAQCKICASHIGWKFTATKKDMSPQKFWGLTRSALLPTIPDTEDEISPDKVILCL
Series [2] concerns the target T1, Protein cereblon/Focal adhesion kinase 1. The series is described as follows: Protac activity at CRBN/PTK2 in human SNU-387 cells assessed as induction of PTK2 degradation incubated for 18 hrs by protein capillary electrophoresis method relative to control. Type of series: cell-based.
The target is the same in series [3]. The series is described as follows: Protac activity at CRBN/PTK2 in human SNU-423 cells assessed as induction of PTK2 degradation incubated for 18 hrs by protein capillary electrophoresis method relative to control. The class given is cell-based.
Series [4] has the same target. The series is described as follows: Protac activity at CRBN/PTK2 in human Huh-7 cells assessed as induction of PTK2 degradation incubated for 18 hrs by protein capillary electrophoresis method. Type of series: cell-based.
Target sequence in this assay (Q05397 whole entry): as the sequence (Q05397 whole entry) above
Target sequence in this assay (Q96SW2 whole entry): as the sequence (Q96SW2 whole entry) above
Series [5] has the same target. The series is described as follows: Protac activity at CRBN/PTK2 in human HLE cells assessed as induction of PTK2 degradation incubated for 18 hrs by protein capillary electrophoresis method relative to control. The class given is cell-based.
Series [6] has the same target. The series is described as follows: Protac activity at CRBN/PTK2 in human HLF1 cells assessed as induction of PTK2 degradation incubated for 18 hrs by protein capillary electrophoresis method relative to control. Type of series: cell-based.
For series [7] the target is unchanged. The series is described as follows: Protac activity at CRBN/PTK2 in human SK-HEP1 cells assessed as induction of PTK2 degradation incubated for 18 hrs by protein capillary electrophoresis method relative to control. Type of series: cell-based.
The target is the same in series [8]. The series is described as follows: Protac activity at CRBN/PTK2 in human Huh-7 cells assessed as induction of PTK2 degradation incubated for 18 hrs by protein capillary electrophoresis method relative to control. The class given is cell-based.
The target is the same in series [9]. The series is described as follows: Protac activity at CRBN/PTK2 in human A549 cells assessed as induction of PTK2 degradation incubated for 18 hrs by protein capillary electrophoresis method. The class given is cell-based.
Target sequence in this assay (Q05397 whole entry): as the sequence (Q05397 whole entry) above
Target sequence in this assay (Q96SW2 whole entry): as the sequence (Q96SW2 whole entry) above
Series [10] shares this target. The series is described as follows: Protac activity at CRBN/PTK2 in human Hep3B2.1-7 cells assessed as induction of PTK2 degradation incubated for 18 hrs in presence of Cyclosporine A by protein capillary electrophoresis method. Type of series: cell-based. The settings on record: hep3b.
Target sequence in this assay (Q05397 whole entry): as the sequence (Q05397 whole entry) above
Target sequence in this assay (Q96SW2 whole entry): as the sequence (Q96SW2 whole entry) above
Series [11] shares this target. The series is described as follows: Protac activity at CRBN/PTK2 in human HepG2 cells assessed as induction of PTK2 degradation incubated for 18 hrs by protein capillary electrophoresis method relative to control. The class given is cell-based.
Series [12] shares this target. The series is described as follows: Protac activity at CRBN/PTK2 in human HuH-1 cells assessed as induction of PTK2 degradation incubated for 18 hrs by protein capillary electrophoresis method relative to control. Type of series: cell-based.
Series [13] has the same target. The series is described as follows: Protac activity at CRBN/PTK2 in human A549 cells assessed as time required for maximal induction of PTK2 degradation at 3 uM by protein capillary electrophoresis method. Type of series: cell-based.
Series [14] shares this target. The series is described as follows: Protac activity at CRBN/PTK2 in human SNU-387 cells assessed as induction of PTK2 degradation incubated for 18 hrs by protein capillary electrophoresis method. Type of series: cell-based.
Target sequence in this assay (Q05397 whole entry): as the sequence (Q05397 whole entry) above
Target sequence in this assay (Q96SW2 whole entry): as the sequence (Q96SW2 whole entry) above
Series [15] shares this target. The series is described as follows: Protac activity at CRBN/PTK2 in human HLF1 cells assessed as induction of PTK2 degradation incubated for 18 hrs by protein capillary electrophoresis method. Type of series: cell-based.
Target sequence in this assay (Q05397 whole entry): as the sequence (Q05397 whole entry) above
Target sequence in this assay (Q96SW2 whole entry): as the sequence (Q96SW2 whole entry) above
A short description of series [16]: Stability in DMSO as solid form. The class given is physicochemical.
For series [17], the target named is T1, Protein cereblon/Focal adhesion kinase 1. The series is described as follows: Protac activity at CRBN/PTK2 in human HuCCT-1 cells assessed as induction of PTK2 degradation incubated for 18 hrs by protein capillary electrophoresis method. The class given is cell-based.
The target of series [18] is T2, von Hippel-Lindau disease tumor suppressor/Focal adhesion kinase 1 (Homo sapiens, UniProt Q05397+P40337). The series is described as follows: Protac activity at VHL/PTK2 in human HLE cells assessed as induction of PTK2 degradation incubated for 18 hrs by protein capillary electrophoresis method. Type of series: cell-based.
Target sequence in this assay (Q05397 whole entry): as the sequence (Q05397 whole entry) above
Target sequence in this assay (P40337 whole entry): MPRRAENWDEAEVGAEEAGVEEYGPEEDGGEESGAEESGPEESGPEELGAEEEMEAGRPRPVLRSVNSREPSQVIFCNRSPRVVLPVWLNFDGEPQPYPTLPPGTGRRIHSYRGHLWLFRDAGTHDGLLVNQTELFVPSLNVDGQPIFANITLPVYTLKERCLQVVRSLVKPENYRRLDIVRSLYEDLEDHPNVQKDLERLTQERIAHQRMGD
Series [19] addresses T2, von Hippel-Lindau disease tumor suppressor/Focal adhesion kinase 1. The series is described as follows: Protac activity at VHL/PTK2 in human HepG2 cells assessed as induction of PTK2 degradation incubated for 18 hrs by protein capillary electrophoresis method relative to control. Type of series: cell-based.
Series [20] has the same target. The series is described as follows: Protac activity at VHL/PTK2 in human SK-HEP1 cells assessed as induction of PTK2 degradation incubated for 18 hrs by protein capillary electrophoresis method relative to control. The class given is cell-based.
Series [21] has the same target. The series is described as follows: Protac activity at VHL/PTK2 in human HuH-1 cells assessed as induction of PTK2 degradation incubated for 18 hrs by protein capillary electrophoresis method relative to control. Type of series: cell-based.
Series [22] has the same target. The series is described as follows: Protac activity at VHL/PTK2 in human Huh-7 cells assessed as induction of PTK2 degradation incubated for 18 hrs by protein capillary electrophoresis method relative to control. The class given is cell-based.
Series [23] has the same target. The series is described as follows: Protac activity at VHL/PTK2 in human Hep3B2.1-7 cells assessed as induction of PTK2 degradation incubated for 18 hrs by protein capillary electrophoresis method. The class given is cell-based. The settings on record: hep3b.
Target sequence in this assay (Q05397 whole entry): as the sequence (Q05397 whole entry) above
Target sequence in this assay (P40337 whole entry): as the sequence (P40337 whole entry) above
Series [24] shares this target. The series is described as follows: Protac activity at VHL/PTK2 in human SNU-398 cells assessed as induction of PTK2 degradation incubated for 18 hrs by protein capillary electrophoresis method relative to control. The class given is cell-based.
Series [25] deals with Leucine-rich repeat serine/threonine-protein kinase 2 (Homo sapiens) (UniProt Q5S007). The series is described as follows: Inhibition of LRRK2 (unknown origin) at 1 uM relative to control.
In series [26] the target is T2, von Hippel-Lindau disease tumor suppressor/Focal adhesion kinase 1. The series is described as follows: Protac activity at VHL/PTK2 in human Hep3B2.1-7 cells assessed as induction of PTK2 degradation incubated for 18 hrs in presence of Cyclosporine by protein capillary electrophoresis method. Type of series: cell-based. The settings on record: hep3b.
Target sequence in this assay (Q05397 whole entry): as the sequence (Q05397 whole entry) above
Target sequence in this assay (P40337 whole entry): as the sequence (P40337 whole entry) above
The target is the same in series [27]. The series is described as follows: Protac activity at VHL/PTK2 in human SNU-387 cells assessed as induction of PTK2 degradation incubated for 18 hrs by protein capillary electrophoresis method. Type of series: cell-based.
Target sequence in this assay (Q05397 whole entry): as the sequence (Q05397 whole entry) above
Target sequence in this assay (P40337 whole entry): as the sequence (P40337 whole entry) above
For series [28] the target is unchanged. The series is described as follows: Protac activity at VHL/PTK2 in human HLF1 cells assessed as induction of PTK2 degradation incubated for 18 hrs by protein capillary electrophoresis method. The class given is cell-based.
Target sequence in this assay (Q05397 whole entry): as the sequence (Q05397 whole entry) above
Target sequence in this assay (P40337 whole entry): as the sequence (P40337 whole entry) above
The target is the same in series [29]. The series is described as follows: Protac activity at VHL/PTK2 in human HuCCT-1 cells assessed as induction of PTK2 degradation incubated for 18 hrs by protein capillary electrophoresis method relative to control. Type of series: cell-based.
Series [30] shares this target. The series is described as follows: Protac activity at VHL/PTK2 in human A549 cells assessed as induction of PTK2 degradation incubated for 18 hrs by protein capillary electrophoresis method relative to control. The class given is cell-based.
For series [31] the target is unchanged. The series is described as follows: Protac activity at VHL/PTK2 in human HepG2 cells assessed as induction of PTK2 degradation incubated for 18 hrs by protein capillary electrophoresis method. Type of series: cell-based.
Target sequence in this assay (Q05397 whole entry): as the sequence (Q05397 whole entry) above
Target sequence in this assay (P40337 whole entry): as the sequence (P40337 whole entry) above
The target is the same in series [32]. The series is described as follows: Protac activity at VHL/PTK2 in human Hep3B2.1-7 cells assessed as time required for maximal induction of PTK2 degradation at 3 uM incubated for up to 80 hrs by protein capillary electrophoresis method. The note with it: time hrs <=80.
Series [33] has the same target. The series is described as follows: Protac activity at VHL/PTK2 in human Huh-7 cells assessed as induction of PTK2 degradation incubated for 18 hrs by protein capillary electrophoresis method. The class given is cell-based.
The target of series [34] is Tyrosine-protein kinase Fes/Fps (Homo sapiens) (UniProt P07332). The series is described as follows: Inhibition of FES (unknown origin) at 1 uM relative to control.
Chain of Tyrosine-protein kinase Fes/Fps (Homo sapiens) (P07332 whole entry): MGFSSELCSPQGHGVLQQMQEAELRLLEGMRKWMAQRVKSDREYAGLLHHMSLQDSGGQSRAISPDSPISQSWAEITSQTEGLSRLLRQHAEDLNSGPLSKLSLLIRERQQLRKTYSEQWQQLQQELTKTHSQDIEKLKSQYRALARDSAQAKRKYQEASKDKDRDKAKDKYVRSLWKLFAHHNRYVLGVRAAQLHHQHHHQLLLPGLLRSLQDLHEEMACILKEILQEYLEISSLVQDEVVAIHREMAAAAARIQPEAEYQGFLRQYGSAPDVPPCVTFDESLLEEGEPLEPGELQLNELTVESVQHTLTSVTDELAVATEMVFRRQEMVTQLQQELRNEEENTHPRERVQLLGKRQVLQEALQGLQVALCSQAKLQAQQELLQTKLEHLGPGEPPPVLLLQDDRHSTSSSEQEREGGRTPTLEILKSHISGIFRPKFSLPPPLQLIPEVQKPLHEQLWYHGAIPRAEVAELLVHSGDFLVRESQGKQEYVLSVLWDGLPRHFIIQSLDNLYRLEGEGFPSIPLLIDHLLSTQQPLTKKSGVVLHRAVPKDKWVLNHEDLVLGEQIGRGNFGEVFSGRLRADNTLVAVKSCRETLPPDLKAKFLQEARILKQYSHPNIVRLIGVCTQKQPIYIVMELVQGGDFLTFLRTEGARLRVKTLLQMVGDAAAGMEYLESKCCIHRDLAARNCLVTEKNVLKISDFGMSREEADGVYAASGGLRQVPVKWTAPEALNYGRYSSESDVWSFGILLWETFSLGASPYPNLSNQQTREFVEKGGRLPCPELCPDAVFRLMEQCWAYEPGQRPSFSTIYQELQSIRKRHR
In series [35] the target is T2, von Hippel-Lindau disease tumor suppressor/Focal adhesion kinase 1. The series is described as follows: Protac activity at VHL/PTK2 in human HLF1 cells assessed as induction of PTK2 degradation incubated for 18 hrs by protein capillary electrophoresis method relative to control. The class given is cell-based.
Series [36] shares this target. The series is described as follows: Protac activity at VHL/PTK2 in human SNU-423 cells assessed as induction of PTK2 degradation incubated for 18 hrs by protein capillary electrophoresis method. Type of series: cell-based.

A value given as a limit tells only on which side of the number the result lay.

Regarding `COc1cc(C(=O)NCCOCCOCCOCCC(=O)Nc2cccc3c2C(=O)N(C2CCC(=O)NC2=O)C3=O)ccc1Nc1ncc(C(F)(F)F)c(Oc2cccc3c2C(=O)CC3)n1` (stereo unspecified), the pDC50 in series [1] is 7.9; in series [4], 7.3; in series [9], 7.6; in series [10], 9; in series [14], 7.6; in [15], 6.4. For the same compound, the pDC50 in [17] was 7.9. Also, the Emax (in general, the size of the effect at its maximum, as opposed to the concentration needed) in series [2] came out at 90%; in series [3], 93%; in series [5], 79%; in series [6] it was 30%; in series [7], 89%; in series [8], 93%. Besides, the Emax came out at 89% in [11] and 50% in series [12]. The TIME in series [13] was 18 h. Also, the Stabilty in series [16] is over 3 months.

As for `COc1cc(C(=O)NCCOCCOCCOCC(=O)N[C@H](C(=O)N2C[C@H](O)C[C@H]2C(=O)NCc2ccc(-c3scnc3C)cc2)C(C)(C)C)ccc1Nc1ncc(C(F)(F)F)c(Oc2cccc3c2C(=O)CC3)n1`, the pDC50 is on record as 7.6 in series [18]; 6.2 in series [23]; 7.4 in series [26]; 7.5 in series [27]; 7.4 in series [28]; 6.2 in series [31]. Also, the pDC50 in [33] was 7; in [36], 7.1. Besides, the Emax is 65% in series [19]; 87% in series [20]; 79% in series [21]; 79% in series [22]; 99% in [24]; 86% in series [29]. Also, the Emax in series [30] was determined as 80%; in [35], 66%. Further, the inhibition in series [25] and in [34] was over 90% in each case. In addition, in series [32], the TIME came out at 20 h.
